Source: US6806285B1, “5-Hydroxyl indole derivatives for treating glaucoma” (Alcon, Inc., priority 2000, dated 2004)

Tests used:
[1] = Solution stability, accelerated stress test; assay type: physicochemical; conditions: 14 days; for Predicted Shelf Life: 25° C., loss of 10% compound (T90), extrapolated from 75° C., pH 5 0.025 M sodium citrate buffer, HPLC
Method: The solution stability of the example compounds were assessed using an accelerated stress test. The compound was dissolved in pH 5, 0.025 M sodium citrate buffer (5˜15 μg/mL). In duplicate, 2 mL of each solution in a glass vial was heated at 75° C. for 14 days. Samples were analyzed periodically using HPLC and % degradation was calculated for the sample. The predicted shelf life (25° C.) was based on the loss of 10% compound (T90) and the fact that the rate of degradation for a first order reaction decreased 50% for every 10° C. drop in temperature.

[2] = system: hypertensive cynomolgus monkeys; conditions: dose 250 μg, cited from earlier work

SMILES	Predicted Shelf Life [1] [months]	Stability relative to the parent compound α-methylserotonin (oxidative degradation and ester hydrolysis) ([1]; stress conditions: pH 5 citrate buffer, 75° C.)	Percent IOP Reduction ± SEM, 1 hour after dose [2] [%]	Percent IOP Reduction ± SEM, 3 hours after dose [2] [%]	Percent IOP Reduction ± SEM, 6 hours after dose [2] [%]
CCC(=O)Oc1ccc2[nH]cc(CC(C)N)c2c1 (stereo not drawn) [Example 1, Propionic acid 3-(2-aminopropyl)1H-indol-5-yl ester]	1.32	did not provide an increase in the stability of the parent compound			
CC(N)Cc1c[nH]c2ccc(OC(=O)C(C)C)cc12 (stereo not drawn) [Example 2, Isobutyric acid 3-(2-aminopropyl)-1H-indol-5yl ester]	3.36				
CC(N)Cc1c[nH]c2ccc(OC(=O)C(C)(C)C)cc12 (stereo not drawn) [Example 3, 2,2-Dimethyl-propionic acid 3-(2-aminopropyl)-1H-indol-5yl ester]	11.3				
CC(N)Cc1c[nH]c2ccc(OC(=O)C3CC3)cc12 (stereo not drawn) [Example 4, Cyclopropanecarboxylic acid 3-(2-aminopropyl)-1H-indol-5yl ester]	5.81				
NCCc1c[nH]c2ccc(O)cc12 [Serotonin]			13.3 ± 5.31	18.0 ± 5.12	2.0 ± 7.39
CC(N)Cc1c[nH]c2ccc(O)cc12 (stereo not drawn) [α-methylserotonin, 3-(2-aminopropyl)-1H-indol-5-ol]	2.6		14.2 ± 4.39	25.8 ± 5.16	30.8 ± 7.72
